Measurements taken from ChEMBL document CHEMBL5046248, “New Pqs Quorum Sensing System Inhibitor as an Antibacterial Synergist against Multidrug-Resistant Pseudomonas aeruginosa” (J Med Chem, 2022).
≈ marks a conversion by molar mass, not a printed value. Calls of active or inactive are those of the source. The rule behind the calls is not given here.

What was measured:
[1] = system: Pseudomonas aeruginosa; test: Antibacterial activity against Pseudomonas aeruginosa PAO1 assessed as inhibition of biofilm formation for 24 hrs by crystal violet staining based assay; assay type: functional, organism-based; settings: PAO1, 24 h
[2] = system: Pseudomonas aeruginosa; test: Synergistic antibacterial activity against Pseudomonas aeruginosa PAO1 assessed as reduction in bacterial viability after 12 hrs in presence of tobramycin; assay type: functional, organism-based
[3] = system: Pseudomonas aeruginosa; test: Synergistic antibacterial activity against multidrug-resistant Pseudomonas aeruginosa FB assessed as reduction in bacterial viability after 12 hrs in presence of 1/2 MIC of ciprofloxacin; assay type: functional, organism-based
[4] = system: Pseudomonas aeruginosa; test: Inhibition of quorum sensing system in Pseudomonas aeruginosa PAO1 assessed as decrease of pyocyanin production at 1.25 to 20 uM for 24 hrs; settings: dose 1.25-20 µM
[5] = system: Pseudomonas aeruginosa; test: Inhibition of beta-galactosidase expression in Pseudomonas aeruginosa PAO1-mini-[…]-lacZ strain at 1.25 to 20 uM; assay type: functional; settings: dose 1.25-20 µM
[6] = system: Pseudomonas aeruginosa; test: Antibiofilm activity against Pseudomonas aeruginosa PAO1 assessed as inhibition of swarming motility for 16 hrs by motility assay; assay type: functional, organism-based; settings: dose 1.25-20 µM
[7] = system: Pseudomonas aeruginosa; test: Inhibition of pyocyanin expression in Pseudomonas aeruginosa PAO1-mini-[…]-pqsA-lacZ strain assessed as decrease in beta-galactosidase at 1.25 to 20 uM; assay type: functional; settings: PAO1-mini-ctx-pqsA-lacZ, dose 1.25-20 µM
[8] = system: Pseudomonas aeruginosa; test: Synergistic antibacterial activity against multidrug-resistant Pseudomonas aeruginosa 1167 assessed as reduction in bacterial viability after 12 hrs in presence of 1/2 MIC of ciprofloxacin; assay type: functional, organism-based
[9] = system: H9c2; test: Cytotoxicity against rat H9c2 cells assessed as reduction in cell viability at 50 uM incubated for 24 hrs by MTT assay; assay type: toxicity, cell-based; settings: h9c2, 24 h
[10] = system: Pseudomonas aeruginosa; test: In vivo antibacterial activity against Pseudomonas aeruginosa PAO1-gfp infected in tail injured zebrafish model assessed as reduction in bacterial burden at 20 uM measured after 24 hrs of post infection; assay type: functional, organism-based
[11] = system: Pseudomonas aeruginosa; test: Synergistic antibacterial activity against multidrug-resistant Pseudomonas aeruginosa 1121 assessed as reduction in bacterial viability after 12 hrs in presence of 1/2 MIC of ciprofloxacin; assay type: functional, organism-based
[12] = system: Pseudomonas aeruginosa; test: Antibiofilm activity against Pseudomonas aeruginosa PAO1 assessed as inhibition of swimming motility for 16 hrs by motility assay; assay type: functional, organism-based; settings: dose 1.25-20 µM
[13] = system: Pseudomonas aeruginosa; test: Inhibition of quorum sensing system in Pseudomonas aeruginosa PAO1 assessed as reduction of pyocyanin expression in flask at 1.25 to 20 uM for 24 hrs; settings: dose 1.25-20 µM
[14] = system: Pseudomonas aeruginosa; test: Synergistic antibacterial activity against multidrug-resistant Pseudomonas aeruginosa FB assessed as reduction in bacterial viability after 12 hrs in presence of colistin E; assay type: functional, organism-based
[15] = system: H9c2; test: Cytotoxicity against rat H9c2 cells assessed as reduction in cell viability at up to 25 uM incubated for 24 hrs by MTT assay; assay type: toxicity, cell-based; settings: h9c2, 24 h
[16] = system: Pseudomonas aeruginosa; test: Inhibition of quorum sensing system in Pseudomonas aeruginosa PAO1 assessed as effect on elastase production for 24 hrs; settings: dose 1.25-20 µM
[17] = system: Pseudomonas aeruginosa; test: Synergistic antibacterial activity against multidrug-resistant Pseudomonas aeruginosa 1167 assessed as reduction in bacterial viability after 12 hrs in presence of colistin E; assay type: functional, organism-based
[18] = system: Pseudomonas aeruginosa; test: Antibiofilm activity against Pseudomonas aeruginosa PAO1 assessed as suppression of biofilm formation for 24 hrs by fluorescent dye SYTO9 and propidium iodide staining based confocal laser microscopic analysis; assay type: functional, organism-based; settings: dose 0.625-10 µM
[19] = system: Pseudomonas aeruginosa; test: Synergistic antibacterial activity against Pseudomonas aeruginosa PAO1 assessed as reduction in bacterial viability after 12 hrs in presence of colistin E; assay type: functional, organism-based
[20] = system: Pseudomonas aeruginosa; test: Antibiofilm activity against Pseudomonas aeruginosa PAO1 assessed as inhibition rate at 0.625 uM for 24 hrs by crystal violet staining based assay relative to control; assay type: functional
[21] = system: Pseudomonas aeruginosa; test: Synergistic antibacterial activity against Pseudomonas aeruginosa PAO1 assessed as reduction in bacterial viability after 12 hrs in presence of 1/2 MIC of ciprofloxacin; assay type: functional, organism-based
[22] = system: Pseudomonas aeruginosa; test: Antibiofilm activity against Pseudomonas aeruginosa PAO1 assessed as inhibition of twitching motility for 16 hrs by motility assay; assay type: functional, organism-based; settings: dose 1.25-20 µM
[23] = system: Pseudomonas aeruginosa; test: Antibiofilm activity against Pseudomonas aeruginosa PAO1 assessed as increase in pyoverdine production at 40 uM by fluorescence assay; assay type: functional, organism-based
[24] = system: Pseudomonas aeruginosa; test: Synergistic antibacterial activity against multidrug-resistant Pseudomonas aeruginosa 1129 assessed as reduction in bacterial viability after 12 hrs in presence of colistin E; assay type: functional, organism-based
[25] = system: Pseudomonas aeruginosa; test: In vivo antibacterial activity against Pseudomonas aeruginosa PAO1-gfp infected in tail injured zebrafish model assessed as increase in survival of zebrafish at 10 to 20 uM measured upto 50 hrs of post fertilization; assay type: functional, organism-based; settings: dose 10-20 µM, time hrs <=50
[26] = system: Pseudomonas aeruginosa; test: Inhibition of elastase expression in Pseudomonas aeruginosa PAO1-mini-[…]-lasB-lacZ strain assessed as decrease in beta-galactosidase at 1.25 to 20 uM; assay type: functional; settings: PAO1-mini-[…]-lasB-[…], dose 1.25-20 µM
[27] = system: Pseudomonas aeruginosa; test: Antibacterial activity against Pseudomonas aeruginosa PAO1 infected rat H9c2 cells assessed as reduction in virulence mediated cytotoxicity by measuring cell survival rate at 20 uM by MTT assay (reference value: 36%); assay type: functional
[28] = system: Pseudomonas aeruginosa; test: Antibiofilm activity against Pseudomonas aeruginosa PAO1 assessed as effect on pyochelin production fluorescence at 1.25 to 20 uM by fluorescence assay; assay type: functional, organism-based; settings: dose 1.25-20 µM
[29] = system: Pseudomonas aeruginosa; test: Synergistic antibacterial activity against multidrug-resistant Pseudomonas aeruginosa 1121 assessed as reduction in bacterial viability after 12 hrs in presence of colistin E; assay type: functional, organism-based
[30] = system: Pseudomonas aeruginosa; test: Synergistic antibacterial activity against multidrug-resistant Pseudomonas aeruginosa 1129 assessed as reduction in bacterial viability after 12 hrs in presence of 1/2 MIC of ciprofloxacin; assay type: functional, organism-based
[31] = system: Pseudomonas aeruginosa; test: Synergistic antibacterial activity against multidrug-resistant Pseudomonas aeruginosa 1129 assessed as reduction in bacterial viability after 12 hrs in presence of tobramycin; assay type: functional, organism-based
[32] = system: Pseudomonas aeruginosa; test: Inhibition of rhamnolipid expression in Pseudomonas aeruginosa PAO1-mini-[…]-rhlA-lacZ strain assessed as decrease in beta-galactosidase at 1.25 to 20 uM; assay type: functional; settings: PAO1-mini-ctx-[…]-lacZ, dose 1.25-20 µM
[33] = system: Pseudomonas aeruginosa; test: Antibacterial activity against Pseudomonas aeruginosa PAO1 infected rat H9c2 cells assessed as reduction in virulence mediated cytotoxicity by measuring increase in cell viability by MTT assay; assay type: functional, organism-based; settings: dose 1.25-20 µM
[34] = system: Pseudomonas aeruginosa; test: Synergistic antibacterial activity against multidrug-resistant Pseudomonas aeruginosa FB assessed as reduction in bacterial viability after 12 hrs in presence of tobramycin; assay type: functional, organism-based
[35] = system: Pseudomonas aeruginosa; test: Inhibition of quorum sensing system in Pseudomonas aeruginosa PAO1 assessed as effect on rhamnolipid production at 1.25 to 20 uM for 24 hrs; settings: dose 1.25-20 µM
[36] = system: Pseudomonas aeruginosa; test: In vivo antibacterial activity against Pseudomonas aeruginosa PAO1-gfp infected in tail injured zebrafish model assessed as reduction in mortality at 10 to 20 uM measured upto 50 hrs of post fertilization; assay type: functional, organism-based; settings: dose 10-20 µM, time hrs <=50
[37] = system: Pseudomonas aeruginosa; test: Antibacterial activity against Pseudomonas aeruginosa PAO1 assessed as bacterial growth inhibition by broth microdilution method; assay type: functional
[38] = system: Pseudomonas aeruginosa; test: Antibacterial activity against Pseudomonas aeruginosa FB assessed as bacterial growth inhibition by broth microdilution method; assay type: functional
[39] = system: Pseudomonas aeruginosa; test: Antibacterial activity against Pseudomonas aeruginosa 1129 assessed as bacterial growth inhibition by broth microdilution method; assay type: functional
[40] = system: Pseudomonas aeruginosa; test: Antibacterial activity against Pseudomonas aeruginosa 1167 assessed as bacterial growth inhibition by broth microdilution method; assay type: functional
[41] = system: Pseudomonas aeruginosa; test: Antibacterial activity against Pseudomonas aeruginosa 1121 assessed as bacterial growth inhibition by broth microdilution method; assay type: functional

CCCCn1c(C)cc(=O)c(O)c1CNC(=O)c1ccc(OC)cc1
IC50 [1]: 4.5 µM
Activity [2]: Dose-Dependent Effect
Activity [3]: Dose-Dependent Effect
Activity [4]: Dose-Dependent Effect
Activity [5]: inactive
Activity [6]: Dose-Dependent Effect
Activity [7]: Dose-Dependent Effect
Activity [8]: Dose-Dependent Effect
Activity [9]: Toxic
Activity [10]: Active
Activity [11]: Dose-Dependent Effect
Activity [12]: Dose-Dependent Effect
Activity [13]: Active
Activity [14]: Dose-Dependent Effect
Activity [15]: Non-Toxic
Activity [16]: inactive
Activity [17]: Dose-Dependent Effect
Activity [18]: Dose-Dependent Effect
Activity [19]: Dose-Dependent Effect
inhibition at 0.625 µM [20]: > 28%
Activity [21]: Dose-Dependent Effect
Activity [22]: Dose-Dependent Effect
Activity [23]: Active
Activity [24]: Dose-Dependent Effect
Activity [25]: Active
Activity [26]: inactive
Activity [27]: 79%
Activity [28]: inactive
Activity [29]: Dose-Dependent Effect
Activity [30]: Dose-Dependent Effect
Activity [31]: Dose-Dependent Effect
Activity [32]: inactive
Activity [33]: Dose-Dependent Effect
Activity [34]: Dose-Dependent Effect
Activity [35]: inactive
Activity [36]: Active

O=C(NCc1cc(=O)c(O)cn1O)c1ccccc1
IC50 [1]: > 100 µM

CCCCCCC(=O)NCc1cc(=O)c(O)cn1C
IC50 [1]: > 100 µM

CCCn1c(C)cc(=O)c(O)c1CNS(=O)(=O)c1ccc(OC)cc1
IC50 [1]: 59.6 µM

Cn1cc(O)c(=O)cc1CNC(=O)c1ccc(C(F)(F)F)cc1
IC50 [1]: > 100 µM

CCCn1c(C)cc(=O)c(O)c1CNC(=O)Cc1ccc(F)cc1
IC50 [1]: > 100 µM

CCCCn1c(C)cc(=O)c(O)c1CNC(=O)c1cccc(OC)c1
IC50 [1]: 31.1 µM

CCCCCC(=O)NCc1cc(=O)c(O)cn1O
IC50 [1]: > 100 µM

CCCn1c(C)cc(=O)c(O)c1CNC(=O)c1ccc(OC)cc1
IC50 [1]: 5.2 µM

CCCCn1c(C)cc(=O)c(O)c1CNC(=O)c1ccccc1OC
IC50 [1]: 28.5 µM

CCCn1c(C)cc(=O)c(O)c1CNC(=O)c1ccccc1OC
IC50 [1]: 62.9 µM

O=C(Cc1ccc(F)cc1)NCc1cc(=O)c(O)cn1O
IC50 [1]: > 100 µM

CCCCCCC(=O)NCc1c(O)c(=O)cc(C)n1CC
IC50 [1]: > 100 µM

CCCCn1c(C)cc(=O)c(O)c1CNC(=O)c1ccc(C(F)(F)F)cc1
IC50 [1]: 8.4 µM

CCCn1c(C)cc(=O)c(O)c1CNC(=O)c1ccc(C(F)(F)F)cc1
IC50 [1]: > 100 µM

NC[C@H]1O[C@H](O[C@H]2[C@H](O)[C@@H](O[C@H]3O[C@H](CO)[C@@H](O)[C@H](N)[C@H]3O)[C@H](N)C[C@@H]2N)[C@H](N)C[C@@H]1O [TOBRAMYCIN]
MIC [37]: 5 µg/mL (≈ 10.7 µM)
MIC [38]: 10 µg/mL (≈ 21.4 µM)
MIC [39]: 10 µg/mL (≈ 21.4 µM)
MIC [40]: 10 µg/mL (≈ 21.4 µM)
MIC [41]: 10 µg/mL (≈ 21.4 µM)

CCn1c(C)cc(=O)c(O)c1CNC(=O)c1ccc(OC)cc1
IC50 [1]: > 100 µM

Cn1cc(O)c(=O)cc1CNC(=O)Cc1ccc(F)cc1
IC50 [1]: > 100 µM

COc1ccc(C(=O)NCc2cc(=O)c(O)cn2O)cc1
IC50 [1]: > 100 µM

CCCCCC(=O)NCc1c(O)c(=O)cc(C)n1CCCC
IC50 [1]: 34.9 µM

CCn1c(C)cc(=O)c(O)c1CNC1CCCC1
IC50 [1]: > 100 µM

CCCCn1c(C)cc(=O)c(O)c1CNc1ccc(OC)cc1
IC50 [1]: 45.4 µM

COc1ccc(CC(=O)NCc2cc(=O)c(O)cn2O)cc1
IC50 [1]: > 100 µM
